Laboratory results as given in patent publication US20090291857A1, “METHODS TO IDENTIFY INHIBITORS OF THE UNFOLDED PROTEIN RESPONSE” (THE BOARD OF TRUSTEES OF THE LELAND STANFORD JUNIOR …, priority 2006, published 2009).

Key:
CHOP/GADD153 = CHOP/GADD153 expression in hypoxic HT1080 cells (Western blot); assay type: cell-based, human; conditions: 2.5 μM, hypoxia 6-12 hours
Method: (§1) A. Effect of irestatin 9389 on PERK and ATF6 pathways. HT1080 cells were treated with vehicle alone (lanes 1-4) or 2.5 μM irestatin 9389 (lanes 5-8) and cultured under aerobic conditions for 18 hours (N) or shifted to hypoxia for the indicated times. Protein lysates were analyzed by Western blot analysis using antisera specific for ATF6 (top), CHOP/GADD153 (middle) or actin (bottom). Arrow indicates the cleaved, transcriptionally active form of ATF6. B. Cleavage of caspase-3 in irestatin-treated cells under hypoxia. HT1080 cells were cultured in normoxia (N) or under hypoxia for 36 hours (H 36) in absence or presence of irestatin 9389 (2.5 μM). Arrows indicate proteolytically cleaved caspase-3. C. Colony formation assay. HT1080 cells were treated as in B under normoxia (N) or hypoxia for 48 hours (H 48). Cells were harvested, counted, and allowed to grow under normal culture conditions for 11-12 days. Colonies were visualized with crystal violet staining. D. Quantification of clonogenic survival assay. Values represent the mean+/−SEM from at least 4 independent experiments. E. TUNEL staining of cells treated as in C. F. Quantification of TUNEL-positive cells. Values represent the mean+/−SEM from at least 3 experiments. […] Cells were harvested at the indicated times and counted by hemocytometer. Values represent the mean calculated from triplicate experiments +/−SEM. […]

caspase-3 = experiment: Cleavage of caspase-3 in HT1080 cells; assay type: cell-based, human; conditions: 2.5 μM
Method: as §1

HT1080 tumor xenografts = experiment: Immunohistochemical analysis of tumor xenografts; assay type: in vivo, mouse; conditions: three doses, 50 mg/kg
Method: Tumor-bearing mice were injected i.p. with hypoxyprobe (50 mg/kg) 1 hour prior to sacrifice. Mice were euthanised under anesthesia by cervical dislocation, and tumors were surgically resected, embedded in OCT compound (Sakura Tissue Tek), and frozen at −80° C. Tumors were sectioned at 8 μm, fixed in 4% paraformaldehyde, and blocked in PBS-4% BSA. Tissue sections were incubated overnight in block solution containing antisera specific for hypoxyprobe (1:250) and cleaved caspase-3 (1:400). Slides were washed three times with block solution and incubated for 2 hours at room temperature with anti-mouse Alexa 488 or anti-rabbit Alexa 594 (Invitrogen, San Diego, Calif.). Slides were washed five times in block solution, and coverslips mounted with Permount supplemented with DAPI.
Immunohistochemical analysis of tumor xenografts. […] D. Quantification of tumor immunohistochemistry. At least 8 randomly chosen fields (>300 cells/field) per tumor were scored for pimonidazole and cleaved caspase-3 staining. A minimum of 3 tumors (250-300 mm^3 at harvest) were analyzed per treatment group. […]
We further examined tumors from control and irestatin-treated mice for differences in cell survival. […] The increase in apoptosis was most pronounced in hypoxic tissue regions of tumors, as determined by co-immunoreactivity for pimonidazole adducts (FIG. 14C, bottom panel). […]

Cc1csc(NC(=O)CSc2nc3c(c(C(F)(F)F)c2C#N)CCC3)n1 [Compound 9389]
expression of CHOP/GADD153 (CHOP/GADD153): increased
cleavage of caspase-3 under hypoxia (caspase-3; 36 hours of hypoxia): stimulated cleavage of caspase-3
caspase-3 processing under normal oxygen (caspase-3; normal oxygen conditions): no effect on caspase-3 processing
cleaved caspase-3 in tumors relative to vehicle (HT1080 tumor xenografts): significant increase
